#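 Grown in 96-well plates, cells were treated for 48 hours with each compound at five concentrations. Insufficient inhibition: endpoint recorded as highest concentration tested. Abbreviation: GI50, concentration required for 50% inhibition of growth. The concentration for full growth arrest is given as TGI.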
# Tests used:
# Experiment in all cases: NCI-60 cell line screen, 48 h
# HCT-116 colon = test system: HCT-116 colon
# ACHN renal = test system: ACHN renal
# SNB-19 CNS = test system: SNB-19 CNS
# NCI-H23 lung = test system: NCI-H23 lung
# SNB-75 CNS = test system: SNB-75 CNS
# OVCAR-8 ovarian = test system: OVCAR-8 ovarian
# MCF7 breast = test system: MCF7 breast
# HS 578T breast = test system: HS 578T breast
# 786-0 renal = test system: 786-0 renal
# NCI/ADR-RES ovarian = test system: NCI/ADR-RES ovarian
# HL-60(TB) leukemia = test system: HL-60(TB) leukemia
# MDA-MB-231 breast = test system: MDA-MB-231 breast
# A549 NSCLC = test system: A549 NSCLC
# SR leukemia = test system: SR leukemia
# EKVX NSCLC = test system: EKVX NSCLC
# BT-549 breast = test system: BT-549 breast
# U251 CNS = test system: U251 CNS
# SF-539 CNS = test system: SF-539 CNS
# PC-3 prostate = test system: PC-3 prostate
# NCI-H522 lung = test system: NCI-H522 lung
# DU-145 prostate = test system: DU-145 prostate
# SF-268 CNS = test system: SF-268 CNS
# MOLT-4 leukemia = test system: MOLT-4 leukemia
# OVCAR-3 ovarian = test system: OVCAR-3 ovarian
# LOX IMVI melanoma = test system: LOX IMVI melanoma
# RPMI-8226 leukemia = test system: RPMI-8226 leukemia
# COLO 205 colon = test system: COLO 205 colon
# NCI-H226 lung = test system: NCI-H226 lung
# A498 renal = test system: A498 renal
# CCRF-CEM leukemia = test system: CCRF-CEM leukemia
# SK-MEL-28 melanoma = test system: SK-MEL-28 melanoma
# HOP-92 NSCLC = test system: HOP-92 NSCLC
# UACC-62 melanoma = test system: UACC-62 melanoma
# SK-MEL-5 melanoma = test system: SK-MEL-5 melanoma
# SW-620 colon = test system: SW-620 colon
# OVCAR-5 ovarian = test system: OVCAR-5 ovarian
# KM12 colon = test system: KM12 colon
# CAKI-1 renal = test system: CAKI-1 renal
# TK-10 renal = test system: TK-10 renal
# M14 melanoma = test system: M14 melanoma
# SF-295 CNS = test system: SF-295 CNS
# UACC-257 melanoma = test system: UACC-257 melanoma
# HOP-62 NSCLC = test system: HOP-62 NSCLC
# T-47D breast = test system: T-47D breast
# HT29 colon = test system: HT29 colon
# NCI-H460 lung = test system: NCI-H460 lung
# MALME-3M melanoma = test system: MALME-3M melanoma
# K-562 leukemia = test system: K-562 leukemia
# SK-OV-3 ovarian = test system: SK-OV-3 ovarian
# MDA-MB-435 = test system: MDA-MB-435
# OVCAR-4 ovarian = test system: OVCAR-4 ovarian
# HCT-15 colon = test system: HCT-15 colon
# UO-31 renal = test system: UO-31 renal
# IGROV1 ovarian = test system: IGROV1 ovarian
# HCC-2998 colon = test system: HCC-2998 colon
# SK-MEL-2 melanoma = test system: SK-MEL-2 melanoma
# RXF 393 renal = test system: RXF 393 renal
# SN12C renal = test system: SN12C renal
structure (smiles),measurement,setting,value
CN1CCN(Cc2ccc(NC(=O)c3nc4ccc5[nH]ncc5c4c4c3CCCC4)cc2C(F)(F)F)CC1,GI50,HCT-116 colon,0.855 µM
same,TGI,HCT-116 colon,1.71 µM
same,GI50,ACHN renal,0.862 µM
same,TGI,ACHN renal,1.55 µM
same,GI50,SNB-19 CNS,0.868 µM
same,TGI,SNB-19 CNS,1.62 µM
same,GI50,NCI-H23 lung,0.901 µM
same,TGI,NCI-H23 lung,1.74 µM
same,GI50,SNB-75 CNS,0.77 µM
same,TGI,SNB-75 CNS,1.49 µM
same,GI50,OVCAR-8 ovarian,0.998 µM
same,TGI,OVCAR-8 ovarian,2.08 µM
same,GI50,MCF7 breast,0.848 µM
same,TGI,MCF7 breast,1.69 µM
same,GI50,HS 578T breast,0.922 µM
same,TGI,HS 578T breast,1.97 µM
same,GI50,786-0 renal,0.895 µM
same,TGI,786-0 renal,1.73 µM
same,GI50,NCI/ADR-RES ovarian,0.847 µM
same,TGI,NCI/ADR-RES ovarian,1.58 µM
same,GI50,HL-60(TB) leukemia,0.943 µM
same,TGI,HL-60(TB) leukemia,2.02 µM
same,GI50,MDA-MB-231 breast,0.88 µM
same,TGI,MDA-MB-231 breast,1.65 µM
same,GI50,A549 NSCLC,0.89 µM
same,TGI,A549 NSCLC,1.79 µM
same,GI50,SR leukemia,0.469 µM
same,TGI,SR leukemia,3.48 µM
same,GI50,EKVX NSCLC,0.802 µM
same,TGI,EKVX NSCLC,1.53 µM
same,GI50,BT-549 breast,2.13 µM
same,TGI,BT-549 breast,4.24 µM
same,GI50,U251 CNS,0.909 µM
same,TGI,U251 CNS,1.78 µM
same,GI50,SF-539 CNS,0.831 µM
same,TGI,SF-539 CNS,1.54 µM
same,GI50,PC-3 prostate,0.866 µM
same,TGI,PC-3 prostate,1.66 µM
same,GI50,NCI-H522 lung,0.922 µM
same,TGI,NCI-H522 lung,1.86 µM
same,GI50,DU-145 prostate,0.902 µM
same,TGI,DU-145 prostate,1.63 µM
same,GI50,SF-268 CNS,0.865 µM
same,TGI,SF-268 CNS,1.7 µM
same,GI50,MOLT-4 leukemia,0.995 µM
same,TGI,MOLT-4 leukemia,2.39 µM
same,GI50,OVCAR-3 ovarian,0.868 µM
same,TGI,OVCAR-3 ovarian,1.6 µM
same,GI50,LOX IMVI melanoma,0.846 µM
same,TGI,LOX IMVI melanoma,1.55 µM
same,GI50,RPMI-8226 leukemia,1.11 µM
same,TGI,RPMI-8226 leukemia,2.69 µM
same,GI50,COLO 205 colon,0.88 µM
same,TGI,COLO 205 colon,1.73 µM
same,GI50,NCI-H226 lung,0.862 µM
same,TGI,NCI-H226 lung,1.77 µM
same,GI50,A498 renal,0.977 µM
same,TGI,A498 renal,2.32 µM
same,GI50,CCRF-CEM leukemia,1.12 µM
same,TGI,CCRF-CEM leukemia,2.99 µM
same,GI50,SK-MEL-28 melanoma,0.862 µM
same,TGI,SK-MEL-28 melanoma,1.58 µM
same,GI50,HOP-92 NSCLC,0.653 µM
same,TGI,HOP-92 NSCLC,1.35 µM
same,GI50,UACC-62 melanoma,0.905 µM
same,TGI,UACC-62 melanoma,1.74 µM
same,GI50,SK-MEL-5 melanoma,0.852 µM
same,TGI,SK-MEL-5 melanoma,1.54 µM
same,GI50,SW-620 colon,0.892 µM
same,TGI,SW-620 colon,1.74 µM
same,GI50,OVCAR-5 ovarian,0.843 µM
same,TGI,OVCAR-5 ovarian,1.58 µM
same,GI50,KM12 colon,0.86 µM
same,TGI,KM12 colon,1.61 µM
same,GI50,CAKI-1 renal,0.816 µM
same,TGI,CAKI-1 renal,1.53 µM
same,GI50,TK-10 renal,0.846 µM
same,TGI,TK-10 renal,1.62 µM
same,GI50,M14 melanoma,0.902 µM
same,TGI,M14 melanoma,1.77 µM
same,GI50,SF-295 CNS,0.879 µM
same,TGI,SF-295 CNS,1.65 µM
same,GI50,UACC-257 melanoma,0.92 µM
same,TGI,UACC-257 melanoma,1.84 µM
same,GI50,HOP-62 NSCLC,0.967 µM
same,TGI,HOP-62 NSCLC,1.92 µM
same,GI50,T-47D breast,0.926 µM
same,TGI,T-47D breast,2.03 µM
same,GI50,HT29 colon,0.894 µM
same,TGI,HT29 colon,1.81 µM
same,GI50,NCI-H460 lung,0.906 µM
same,TGI,NCI-H460 lung,1.74 µM
same,GI50,MALME-3M melanoma,0.764 µM
same,TGI,MALME-3M melanoma,1.53 µM
same,GI50,K-562 leukemia,0.701 µM
same,TGI,K-562 leukemia,1.96 µM
same,GI50,SK-OV-3 ovarian,7.08 µM
same,TGI,SK-OV-3 ovarian,14 µM
same,GI50,MDA-MB-435,0.841 µM
same,TGI,MDA-MB-435,1.56 µM
same,GI50,OVCAR-4 ovarian,0.861 µM
same,TGI,OVCAR-4 ovarian,1.67 µM
same,GI50,HCT-15 colon,0.792 µM
same,TGI,HCT-15 colon,1.52 µM
same,GI50,UO-31 renal,0.785 µM
same,TGI,UO-31 renal,1.48 µM
same,GI50,IGROV1 ovarian,0.883 µM
same,TGI,IGROV1 ovarian,1.67 µM
same,GI50,HCC-2998 colon,0.867 µM
same,TGI,HCC-2998 colon,1.63 µM
same,GI50,SK-MEL-2 melanoma,1.03 µM
same,TGI,SK-MEL-2 melanoma,2.2 µM
same,GI50,RXF 393 renal,0.806 µM
same,TGI,RXF 393 renal,1.53 µM
same,GI50,SN12C renal,0.877 µM
same,TGI,SN12C renal,1.65 µM
